Values of other authors, collected in patent US6465497B2, “Arylthiazolidinedione derivatives” (Merck & Co., Inc., priority 1999, dated 2002).

Key:
diabetic mouse model = conditions: Sohda et al, Chem. Pharm. Bull. 1982
ob/ob mice = conditions: Cantello et al, J. Med. Chem. 1994
PPARγ = target: T1, PPARγ (Homo sapiens, UniProt P37231); conditions: subsequent studies; Willson et al, J. Med. Chem. 1996
T1 sequence (P37231 1-505): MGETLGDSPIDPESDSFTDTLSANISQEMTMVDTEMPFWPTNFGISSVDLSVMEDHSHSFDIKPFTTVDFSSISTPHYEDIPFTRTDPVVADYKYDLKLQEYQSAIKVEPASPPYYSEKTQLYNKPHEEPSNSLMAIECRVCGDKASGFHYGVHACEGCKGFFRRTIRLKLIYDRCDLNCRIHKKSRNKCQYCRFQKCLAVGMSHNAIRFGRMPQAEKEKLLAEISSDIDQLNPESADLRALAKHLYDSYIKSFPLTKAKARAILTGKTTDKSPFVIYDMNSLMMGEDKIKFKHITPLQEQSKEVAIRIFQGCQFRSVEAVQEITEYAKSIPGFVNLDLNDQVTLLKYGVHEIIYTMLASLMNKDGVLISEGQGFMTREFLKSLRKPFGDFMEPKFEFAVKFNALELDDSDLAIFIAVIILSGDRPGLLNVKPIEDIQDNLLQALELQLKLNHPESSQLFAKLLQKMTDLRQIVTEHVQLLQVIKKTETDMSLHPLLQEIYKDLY

| SMILES | antihyperglycemic effect (diabetic mouse model) | antihyperglycemic activity (ob/ob mice) | amounts required for PPARγ activation (PPARγ) |
| --- | --- | --- | --- |
| O=C1NC(=O)C(c2ccc(OCCc3ccccc3)cc2)S1 (stereo not drawn) [(2), 5-[4-(phenylethoxy)phenyl]-2,4-thiazolidinedione] | no antihyperglycemic effect | – | – |
| CN(CCOc1ccc(C2SC(=O)NC2=O)cc1)c1nc2ccccc2o1 (stereo not drawn) [(1), 5-[4-[2-(2-benzoxazolylmethylamino)ethoxy]phenyl]-2,4-thiazolidinedione] | – | no antihyperglycemic activity | relatively high amounts |
